Measured values as given in article PMC5711933, “Intracellular biomass flocculation as a key mechanism of rapid bacterial killing by cationic, amphipathic antimicrobial peptides and peptoids” (Scientific Reports, 2017).
Non-standard residues stand in square brackets, D forms with d. Residues, ends and D or L forms follow the SMILES beside them. Nspe = C[C@H](NCC(=O)O)c1ccccc1; Nlys = NCCCCNCC(=O)O

Assays:
EGFP-Luc plasmid = assay: DNA retardation assay (gel electrophoresis); format: binding; details: EGFP-Luc plasmid in TBS, complexes 20 min at room temperature, 1–2% agarose gel
Protocol: DNA retardation was analyzed by gel electrophoresis. Peptoid/peptide-DNA complexes were formed by adding 10 µL of peptide/peptoid solution of varying concentrations to 10 µL DNA solution (EGFP-Luc plasmid in Tris-buffered saline (TBS) buffer), and the resulting solution was mixed by gentle aspiration. Complexes were incubated for 20 min at room temperature. After complex formation, 20 µL of each sample were loaded onto a 1–2% agarose gel in Tris/borate/EDTA (TBE) buffer, which ran at 120 V for 15 min. DNA bands on the gel were visualized under UV light by ethidium bromide staining.

E. coli ATCC 35218 [1] = assay: Bacterial count by plating after 1-hour treatment, before SEM sample preparation; format: cell-based; details: 1 hour in PBS, control 5 × 10^5 CFU/mL
Protocol: E. coli was treated with 10 μM peptide or peptoid for 1 hour in phosphate-buffered saline (PBS). […] We used 10 μM peptide/peptoid for all samples since it is near the MICs of the majority of the oligomers.
Before fixation, aliquots of each samples were serially diluted and plated on agar to determine the concentration of live bacteria remaining after the 1-hour treatment. […] (1) SEM samples were treated in PBS (as discussed above), whereas MIC assays are performed in cation-adjusted Mueller-Hinton broth. AMPs and ampetoids are known to interact with ions in the media (for example, when switching from plain Mueller-Hinton broth to cation-adjusted Mueller-Hinton broth)[1], so differences in activity may be due to changes in media composition. (2) the treatments were for one hour only, whereas MICs are determined after 16 hours of growth. […] (3) Some of these compounds may cause inhibition of growth without causing bacterial cell death (i.e., they are bacteriostatic—which is what the MIC indicates—rather than bactericidal—which is determined by plating and counting colonies). […]
Overnight cultures of E. coli ATCC 35218 were centrifuged for 10 min and 2500 × g at room temperature, then resuspended in PBS. […] Bacterial concentrations of the diluted suspensions were calculated from their OD590 values using optical density curves derived from pre-determined concentrations. […]

E. coli ATCC 35218 [2] = format: cell-based; details: CAMHB, 35 °C, 16 h, final 5 × 10^5 CFU/mL; reproducible between three independent replicates
Protocol: MICs were determined according to CLSI M7-A6 protocols in a 96-well microtiter plate. In test wells, 50 μL bacterial inoculum (1 × 10^6 CFU/ml) in cation-adjusted Mueller-Hinton broth (CAMHB) was added to 50 μL peptoid solution in CAMHB (prepared by 1:2 serial dilutions). Positive controls contained 50 μL inoculum and 50 μL CAMHB without peptoid. […] MIC values reported were reproducible between three independent experimental replicates, each consisting of two parallel trials.

Erythrocytes = assay: Hemolysis assay; format: cell-based; details: human erythrocytes in PBS pH 7.4, 1 h at 37 °C, A350; three independent replicates (two for LL-37 and fowlicidin-1)
Protocol: The plate was then centrifuged at 1200 g for 15 min, 100 μL of the supernatant from each well transferred to a fresh microtiter plate, and A350 measured.

[3] = tested on: Bioluminescent P. aeruginosa; format: cell-based, Pseudomonas aeruginosa; details: 12.5 µM, LB, 37 °C, 10 min; average of three independent experiments with two replicates each
Protocol: The decrease in bioluminescence at 37 °C was measured for a range of concentrations from 0 – 100 μM (Supp. Figs. S6 and S7).
Bioluminescent P. aeruginosa [73] was grown at 37 °C in Luria-Bertani (LB) broth. […] In a 96-well plate, 50 µL of P. aeruginosa solution (1 × 10^6 CFU/mL) was added to 50 µL of antimicrobial solution, and the bioluminescence was measured using an IVIS imaging system (a Xenogen product from Caliper Life Sciences, Hopkinton, MA) at 10 min intervals for 2 h. The reported values are the average of three independent experiments with two replicates each.

[4] = RP-HPLC elution (% ACN) as measure of hydrophobicity; format: physicochemical; details: chromatographic hydrophobicity; gradient of 5–95% acetonitrile (ACN) over 45 minutes, C18 column, 0.2 mL/min; average of three replicates
E. coli ATCC 35218 [5] = assay: Bacterial count by plating after treatment, before TEM sample preparation; format: cell-based
Protocol: E. coli ATCC 35218, grown overnight at 35 °C in Mueller-Hinton broth (MHB), were resuspended in 1X (150 mM) PBS, pH 7.4, and diluted to a concentration of 1 × 10^8 CFU/mL. Aqueous peptide/peptoid stock solutions were added to 1 mL aliquots of the suspension to the desired final concentration. After 1 hour, small volumes of each sample were serially diluted, plated, and incubated overnight at 35 °C, to be counted the following day. The remaining volume of each sample was centrifuged, and the pellet resuspended and enrobed in 5–10 µL of 2% low-melting agarose (gelling temperature 25° ± 5 °C) then drawn up into the tip of a Pasteur pipette. The solidified rods were extruded into fixative (2% glutaraldehyde, 2% paraformaldehyde, 50 mM PBS, pH 7.4). […] 50 nm thin sections of embedded samples were cut using a diamond knife, stained for 5 min in 5% aqueous uranyl acetate, then rinsed in H2O. Sections were examined in a JEOL 1230 TEM. Experimental conditions were each repeated in at least two independent trials. For each replicate of each sample, bacteria across the thin section were first surveyed to determine morphological characteristics representative of that sample, then images were captured of at least five bacteria displaying those morphologies with an emphasis on clean (i.e., orthogonal) transverse and/or longitudinal sections. Each image shown is thus representative of the ultrastructural characteristics observed in bacteria throughout a given sample and between replicates.

Which “Retardation assay: mass of compound required to completely retard migration of 1 µg of DNA” value (EGFP-Luc plasmid) does the source give for `C[C@@H](c1ccccc1)N(CC(N)=O)C(=O)CN(C(=O)CN(CCCCN)C(=O)CN(C(=O)CN(C(=O)CN(CCCCN)C(=O)CN(C(=O)CN(C(=O)CN(CCCCN)C(=O)CN(C(=O)CN(C(=O)CNCCCCN)[C@@H](C)c1ccccc1)[C@@H](C)c1ccccc1)[C@@H](C)c1ccccc1)[C@@H](C)c1ccccc1)[C@@H](C)c1ccccc1)[C@@H](C)c1ccccc1)[C@@H](C)c1ccccc1` [compound 1] (H-[Nlys][Nspe][Nspe][Nlys][Nspe][Nspe][Nlys][Nspe][Nspe][Nlys][Nspe][Nspe]-NH2) here?
Its value is 3.0 µg.

What about the “SEM: Bacterial count after 10 µM treatment (% of control)” value (E. coli ATCC 35218 [1]) of the same compound?
Its value is 40 % of control.

And the “E. coli ATCC 35218 MIC” value (E. coli ATCC 35218 [2])?
The value was 6.3 µM.

And the “HD10 (hemolytic dose; concentration for 10% hemolysis)” value (Erythrocytes)?
Its value is 14 µM.

What about the “HD50 (hemolytic dose; concentration for 50% hemolysis)” value (Erythrocytes) of the same compound?
Its value is 62 µM.

And the “Decrease in bioluminescence within 10 min” value [3]?
The value was ~ 99.9%.

What about the “% ACN at RP-HPLC elution” value [4] of the same compound?
The value was 64.2%.

What about the “TEM: Bacterial count after 10 µM treatment (% of control)” value (E. coli ATCC 35218 [5]; 10 µM, 1 hour in PBS pH 7.4, control 1 × 10^8 CFU/mL) of the same compound?
Its value is 0.2 % of control.

What about the “Bacteria remaining after 5-min treatment” value (E. coli ATCC 35218 [5]; 100 µM, 5 minutes) of the same compound?
The value was 1 × 10^4 CFU/mL.

And the “Bacteria remaining after 5-min treatment (% of bacteria in the control)” value (E. coli ATCC 35218 [5]; 100 µM, 5 minutes)?
Its value is 0.01%.

And the “TEM: Bacterial count after 100 µM treatment (% of control)” value (E. coli ATCC 35218 [5]; 100 µM, 1 hour in PBS pH 7.4, control 1 × 10^8 CFU/mL)?
Its value is 0 (0) % of control.

What about the “Bacterial killing after 15-min, 30-min, and 60-min treatments” value (E. coli ATCC 35218 [5]; 100 µM, 15, 30 and 60 minutes) of the same compound?
The value was “all bacteria were killed”.
